Legend:
Type in all cases: physicochemical
[1] = Minocycline stability in water, 6 days at room temperature, HPLC of supernatant; settings: capped glass vial
Excerpt: The vials were then centrifuged and the supernatant analyzed by HPLC.

[2] = Binding of minocycline HCl to Hydroxysomes and release (pH dependence); settings: for pH at which minocycline attaches (binds) to Hydroxysomes: binding suspension in water, shaken 30 min, monohydrochloride
Experimental: Hydroxysomes® (calcium phosphate particles, Laboratory Skin Care, San Carlos, Calif.) were suspended in water. […] The final pH of the suspension was adjusted to 6.2 to 8.0 with add. The binding suspension was mixed by shaking for 30 min. The binding suspensions were centrifuged at 10,000 rpm for 10 min in the bench top microcentrifuge. The supernatants were analyzed with the Shimadzu spectrophotometer to quantify the free minocycline. The bound minocycline was calculated by subtracting the amount of the minocycline detected in the supernatant, from the total initial amount in the binding suspension. The total initial minocycline absorbance at the binding pH was calculated from the linearity equation of the standard plot. • Controls: Minocycline solution at the same pH with the same concentration as in the binding mixture. D. Example Formulation

[3] = Fluorescence of bulk powders under white and UV black light; settings: 25 mg MNC/g Hydroxysomes

degradation by HPLC analysis of supernatant [1]: substantial degradation
visible discoloration of vial [1]: visibly discolored
pH at which minocycline associated with Hydroxysomes is unstable (releases) [2]: acidic pH
pH at which minocycline attaches (binds) to Hydroxysomes ([2]; listed as Minocycline): 6.2-8.0
pH at which minocycline attaches (binds) to Hydroxysomes [2]: neutral or alkaline pH
fluorescence of bulk powder under black light [3]: Intense yellow-orange fluorescence
Structure (SMILES): CN(C)c1ccc(O)c2c1C[C@H]1C[C@H]3[C@H](N(C)C)C(O)=C(C(N)=O)C(=O)[C@@]3(O)C(O)=C1C2=O.Cl [Minocycline HCl, 4,7-Bis(dimethylamino) 1,4,4a,5,5a,6,11,12a-octahydro-3,10,12,12a-tetrahydroxy-1,11-dioxo-2-naphthacenecarboxamide monohydrochloride]
